Data published in patent publication US10654834B2 (Venenum Biodesign, LLC, priority 2016, dated 2020).

Legend:
[1] = Pharmacokinetic profile in mice after oral gavage; type: in vivo, mouse; conditions: mouse; fasted male Hilltop mice, 10 mg/kg oral gavage, plasma; read-out: Cmax
Outline: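 Fasted 8-week male Hilltop mice given 10 mg/kg orally in 20% PEG400/80% 0.5% CMC + 0.25% Tween-80. EDTA plasma sampled 0-4 h, measured by LC-MS/MS (MRM, positive ion); Cmax and AUC derived non-compartmentally, values being means of three mice.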

[2] = target: T1, mouse TGR5 receptor (Mus musculus, UniProt Q80SS6); experiment: Mouse TGR5 HTRF cAMP production assay (HEK293-EBNA cells, Cisbio cAMP HiRange kit); type: cell-based; conditions: HEK293-EBNA cells overexpressing mouse TGR5, HTRF cAMP assay
T1 construct: host or cells: HEK293-EBNA (293 c18, ATCC CRL10852)
T1 sequence (Q80SS6 1-329): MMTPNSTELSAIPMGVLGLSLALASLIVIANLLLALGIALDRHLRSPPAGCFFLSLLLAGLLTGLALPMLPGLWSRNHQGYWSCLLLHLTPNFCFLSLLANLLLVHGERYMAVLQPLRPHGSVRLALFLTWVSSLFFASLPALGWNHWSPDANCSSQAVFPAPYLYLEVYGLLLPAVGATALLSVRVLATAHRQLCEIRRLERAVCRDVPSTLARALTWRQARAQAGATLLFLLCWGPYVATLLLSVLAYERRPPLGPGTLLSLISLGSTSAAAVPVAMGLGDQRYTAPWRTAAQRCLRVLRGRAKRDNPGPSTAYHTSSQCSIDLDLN
Outline: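 HEK293-EBNA cells stably expressing mouse TGR5 (episomal vector) were suspended in serum-free DMEM with 500 μM IBMX and exposed to 12-point half-log compound dilutions for 1 h at room temperature. cAMP was detected by HTRF (d2-cAMP/anti-cAMP cryptate, 1 h, room temperature), giving EC50 from duplicates.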

| SMILES | Cmax [1] [ng/mL] | EC50 [2] [nM] |
| --- | --- | --- |
| N#Cc1ccc(CCNC(=O)[C@@H]2CCCN2c2cc(N3CCC(CO)CC3)nc(C(F)(F)F)n2)cc1 [Compound 1, (S)—N-(4-cyanophenethyl)-1-(6-(4-(hydroxymethyl)piperidin-1-yl)-2-(trifluoromethyl)pyrimidin-4-yl)pyrrolidine-2-carboxamide] | 233 | – |
| N#Cc1ccc(CCNC(=O)[C@@H]2CCCN2c2cc(N3CCC(CCCC(=O)NCS(=O)(=O)O)CC3)nc(C(F)(F)F)n2)cc1 [Compound 66, (S)-(4-(1-(6-(2-((4-cyanophenethyl)carbamoyl)pyrrolidin-1-yl)-2-(trifluoromethyl)pyrimidin-4-yl)piperidin-4-yl)butanamido)-methanesulfonic acid] | 7.3 | < 100 |
| N#Cc1ccc(CCNC(=O)[C@@H]2CCCN2c2cc(N3CCC(CCCC(=O)NCC(N)=O)CC3)nc(C(F)(F)F)n2)cc1 [Compound 68, (S)-1-(6-(4-(4-((2-amino-2-oxoethyl)amino)-4-oxobutyl)piperidin-1-yl)-2-(trifluoromethyl)pyrimidin-4-yl)-N-(4-cyanophenethyl)pyrrolidine-2-carboxamide] | 15 | < 100 |
| N#Cc1ccc(CCNC(=O)[C@@H]2CCCN2c2cc(N3CCC(CCCC(=O)N[C@@H](CCC(=O)O)C(=O)O)CC3)nc(C(F)(F)F)n2)cc1 [Compound 76, (S)-2-(4-(1-(6-((S)-2-((4-cyanophenethyl)carbamoyl)pyrrolidin-1-yl)-2-(trifluoromethyl)pyrimidin-4-yl)piperidin-4-yl)butanamido)-pentanedioic acid] | 3 | < 100 |
| CS(=O)(=O)NCCNC(=O)CCCC1CCN(c2cc(N3CCC[C@H]3C(=O)NCCc3ccc(C#N)cc3)nc(C(F)(F)F)n2)CC1 [Compound 93] | 5 | < 100 |
| N#Cc1ccc(CCNC(=O)[C@@H]2CCCN2c2cc(N3CCC(CCNC(=O)NCCS(N)(=O)=O)CC3)nc(C(F)(F)F)n2)cc1 [Compound 80, (S)-N-(4-cyanophenethyl)-1-(6-(4-(2-(3-(2-sulfamoylethyl)ureido)-ethyl)piperidin-1-yl)-2-(trifluoromethyl)pyrimidin-4-yl)pyrrolidine-2-carboxamide] | 1.2 | < 100 |
| O=C(NCCC1CCN(c2cc(N3CCC[C@H]3C(=O)NCCc3ccc(C(F)(F)F)cc3)nc(C(F)(F)F)n2)CC1)NCCS(=O)(=O)O [Compound 86, (S)-2-(3-(2-(1-(2-(trifluoromethyl)-6-(2-((4-(trifluoromethyl)phenethyl)-carbamoyl)pyrrolidin-1-yl)pyrimidin-4-yl)piperidin-4-yl)ethyl)ureido)-ethanesulfonic acid] | 13 | < 100 |
| CS(=O)(=O)NCCNC(=O)CCCC1CCN(c2cc(N3CCC[C@H]3C(=O)NCCc3ccc(C(F)(F)F)cc3)nc(C(F)(F)F)n2)CC1 [Compound 91, (S)-1-(6-(4-(4-((2-(methylsulfonamido)ethyl)amino)-4-oxobutyl)piperidin-1-yl)-2-(trifluoromethyl)pyrimidin-4-yl)-N-(4-(trifluoromethyl)phenethyl)pyrrolidine-2-carboxamide] | 10 | < 100 |
| N#Cc1ccc(CCNC(=O)[C@@H]2CCCN2c2cc(N3CCC(CCNC(=O)NCCC(=O)O)CC3)nc(C(F)(F)F)n2)cc1 [Compound 81, (S)-3-(3-(2-(1-(6-(2-((4-cyanophenethyl)carbamoyl)pyrrolidin-1-yl)-2-(trifluoromethyl)pyrimidin-4-yl)piperidin-4-yl)ethyl)ureido)-propanoic acid] | 60 | < 100 |
| N#Cc1ccc(CCNC(=O)[C@@H]2CCCN2c2cc(N3CCC(CCCC(=O)N[C@@H](CCCNC(=N)N)C(=O)O)CC3)nc(C(F)(F)F)n2)cc1 [Compound 72, (S)-2-(4-(1-(6-((S)-2-((4-cyanophenethyl)carbamoyl)pyrrolidin-1-yl)-2-(trifluoromethyl)pyrimidin-4-yl)piperidin-4-yl)butanamido)-5-guanidinopentanoic acid] | 1.6 | < 100 |
| N#Cc1ccc(CCNC(=O)[C@@H]2CCCN2c2cc(N3CCC(COCC(=O)O)CC3)nc(C(F)(F)F)n2)cc1 [Compound 88, (S)-2-((1-(6-(2-((4-cyanophenethyl)carbamoyl)pyrrolidin-1-yl)-2-(trifluoromethyl)pyrimidin-4-yl)piperidin-4-yl)methoxy)acetic acid] | 630 | < 100 |
| N#Cc1ccc(CCNC(=O)[C@@H]2CCCN2c2cc(N3CCC(CCNC(=O)NCCS(=O)(=O)O)CC3)nc(C(F)(F)F)n2)cc1 [Compound 78, (S)-2-(3-(2-(1-(6-(2-((4-cyanophenethyl)carbamoyl)pyrrolidin-1-yl)-2-(trifluoromethyl)pyrimidin-4-yl)piperidin-4-yl)ethyl)ureido)ethanesulfonic acid] | 1.3 | < 100 |
| N#Cc1ccc(CCNC(=O)[C@@H]2CCCN2c2cc(N3CCC(CCCC(=O)NCCNc4cc(C(=O)O)ncn4)CC3)nc(C(F)(F)F)n2)cc1 [Compound 101, (S)-6-((2-(4-(1-(6-(2-((4-cyanophenethyl)carbamoyl)pyrrolidin-1-yl)-2-(trifluoromethyl)pyrimidin-4-yl)piperidin-4-yl)butanamido)ethyl)amino)-pyrimidine-4-carboxylic acid] | 0.7 | < 100 |
| N#Cc1ccc(CCNC(=O)[C@@H]2CCCN2c2cc(N3CCC(CCCC(=O)NCP(=O)(O)O)CC3)nc(C(F)(F)F)n2)cc1 [Compound 64, (S)-((4-(1-(6-(2-((4-cyanophenethyl)carbamoyl)pyrrolidin-1-yl)-2-(trifluoromethyl)pyrimidin-4-yl)piperidin-4-yl)butanamido)methyl)-phosphonic acid] | 2.9 | < 100 |
| O=C(CCCC1CCN(c2cc(N3CCC[C@H]3C(=O)NCCc3ccc(C(F)(F)F)cc3)nc(C(F)(F)F)n2)CC1)NCCNc1ncnc2c1ncn2[C@@H]1O[C@H](CO)C(O)C1O (stereo partly drawn) [Compound 96, (2S)-1-(6-(4-(4-((2-((9-((2R,5R)-3,4-dihydroxy-5-(hydroxymethyl)-tetrahydrofuran-2-yl)-9H-purin-6-yl)amino)ethyl)amino)-4-oxobutyl)piperidin-1-yl)-2-(trifluoromethyl)-pyrimidin-4-yl)-N-(4-(trifluoromethyl)-phenethyl)-pyrrolidine-2-carboxamide] | 1.1 | < 100 |
